Columns and labels:
[1] = system: HCT-116 (human colorectal cancer cells); assay: MTT cytotoxicity assay, HCT-116; assay type: cell-based
[2] = system: CT-26 (murine colorectal cancer cells); assay: MTT cytotoxicity assay, CT-26; assay type: cell-based; details: Mus musculus, CT26, 24 h
red blood cells (RBCs) = assay: Hemolysis assay; assay type: cell-based; details: rat blood, 10 μM, 25 μM, 50 μM, and 100 μM, compared to positive control
HCT-116 cells [3] = assay: DNA fragmentation, Hoechst staining, HCT-116; assay type: cell-based, human; details: HCT-116, 50 µM, 24 h
CT-26 cells [4] = assay: DNA fragmentation, Hoechst staining, CT-26; assay type: cell-based, murine; details: CT-26, 50 µM, 24 h
HCT-116 cells [5] = assay: Cell migration; assay type: cell-based, human; details: 24 h, control = 100 %
CT-26 cells [6] = assay: Cell migration; assay type: cell-based, murine; details: 24 h, control = 100 %
Wistar rats [7] = assay: Lipid peroxidation assay; assay type: in vivo, rat; details: 1000 mg/kg, compared to control
Wistar rats [8] = assay: Superoxide dismutase activity in organ homogenates; assay type: in vivo, rat
Wistar rats [9] = assay: Histopathological examination of liver, kidney and spleen; assay type: in vivo, rat; details: for Liver sections, histopathology / Spleen sections, histopathology: H&E
Wistar rats [10] = assay: Serum biochemistry after acute oral administration; details: n = 3; for Globulin: normal range 1.5–2.5, mean ± S.E.M; for A/G ratio: normal range 1.58–2.67, mean ± S.E.M; for Albumin: normal range 3.4–4.8, mean ± S.E.M; for Total protein: normal range 5.2–7.1, mean ± S.E.M; for SGPT (ALT): normal range 18–45, mean ± S.E.M; for ALP: normal range 62–230, mean ± S.E.M; for SGOT (AST): normal range 74–183, mean ± S.E.M
Wistar rats [11] = assay: Acute oral toxicity study; details: for change in body weight / food consumed by animals (weight) / change in organ weight, Kidney / change in organ weight, Liver / change in organ weight, Spleen: mean ± S.E.M, n = 5

SMILES: CC(C)(C)CC(C)(C)Nc1c(-c2ccc(-c3ccccc3)cc2)nc2cnccn12 [IG-01–008, 2-([1,1’-biphenyl]-4-yl)-N-(2,4,4-trimethylpentan-2-yl)imidazo[1,2-a]pyrazin-3-amine]
- cell viability ([1]; HCT-116, 10 μM and 25 μM): no significant reduction in cell viability
- cytotoxicity ([1]; HCT-116, 50 μM and 100 μM): higher cytotoxicity compared to IG-01–007
- IC50 ([1]; Homo sapiens, HCT-116, 24 h): 30.9 ± 10.6 µM
- IC50 [2]: 48.1 ± 22.6 µM
- hemolytic activity (red blood cells (RBCs)): did not show any hemolytic activity
- DNA fragmentation (HCT-116 cells [3]): DNA fragmentation
- DNA fragmentation (CT-26 cells [4]): DNA fragmentation
- % migration of cell (HCT-116 cells [5]; HCT-116, 25 μM): 36.33%
- % migration of cell (HCT-116 cells [5]; HCT-116, 50 μM): 20.76%
- migration percentages (CT-26 cells [6]; CT-26, 25 μM): 35.65%
- migration percentages (CT-26 cells [6]; CT-26, 50 μM): 39.17%
- MDA levels, liver (Wistar rats [7]): significantly higher
- SOD level, spleen (Wistar rats [8]; 300 mg/kg, compared with control and 1 % DMSO): significant decrease seen in SOD level
- SOD level, spleen (Wistar rats [8]; 1000 mg/kg, compared with IG-01–007 and IG-01–008 at 300 mg/kg): significant reduction of SOD level
- SOD levels, kidney (Wistar rats [8]; 1000 mg/kg, compared with IG-01–007 at 300 mg/kg): SOD levels were significantly decreased
- SOD level, spleen (Wistar rats [8]; 1000 mg/kg, compared with control and 1 % DMSO): significant decrease seen in SOD level
- SOD levels, kidney (Wistar rats [8]; 1000 mg/kg, in comparison with 1 % DMSO): SOD levels significantly decreased
- Liver sections, histopathology (Wistar rats [9]; 300 mg/kg): mild steatosis and presence of micro and macro vesicles
- Spleen sections, histopathology (Wistar rats [9]; 300 mg/kg): ill-defined spleen section
- Liver sections, histopathology (Wistar rats [9]; 1000 mg/kg): moderate to severe fatty liver change with presence of sinusoidal spaces indicated by arrow and multi necrotic foci filled with mild hemorrhage
- Spleen sections, histopathology (Wistar rats [9]; 1000 mg/kg): disrupt white pulp
- toxicity in liver tissues (abstract) (Wistar rats [9]; doses of ≥ 1000 mg/kg): hepatic damage and cholestasis
- Globulin (Wistar rats [10]; 300 mg/kg): 4.30 ± 0.529 g/dL
- A/G ratio (Wistar rats [10]; 300 mg/kg): 0.736 ± 0.0523
- Albumin (Wistar rats [10]; 300 mg/kg): 3.166 ± 0.2905 g/dL
- Total protein (Wistar rats [10]; 300 mg/kg): 7.266 ± 0.523 g/dL
- SGPT (ALT) (Wistar rats [10]; 300 mg/kg): 60.33 ± 3.756 U/L
- ALP (Wistar rats [10]; 300 mg/kg): 391.33 ± 9.261 U/L
- SGOT (AST) (Wistar rats [10]; 300 mg/kg): 255 ± 5.291 U/L
- Globulin (Wistar rats [10]; 1000 mg/kg): 4.35 ± 0.144 g/dL
- A/G ratio (Wistar rats [10]; 1000 mg/kg): 0.923 ± 0.0648
- Albumin (Wistar rats [10]; 1000 mg/kg): 3.67 ± 0.2055 g/dL
- Total protein (Wistar rats [10]; 1000 mg/kg): 7.60 ± 0.3183 g/dL
- SGPT (ALT) (Wistar rats [10]; 1000 mg/kg): 79.0 ± 1.732 U/L
- Triglycerides (Wistar rats [10]; 1000 mg/kg, normal range 20–114, mean ± S.E.M): 115.33 ± 5.487 mg%
- ALP (Wistar rats [10]; 1000 mg/kg): 501.66 ± 13.64 U/L
- SGOT (AST) (Wistar rats [10]; 1000 mg/kg): 302.33 ± 4.096 U/L
- change in body weight (Wistar rats [11]; 0 day, 300 mg/kg): 242 ± 5.1478 gm
- food consumed by animals (weight) (Wistar rats [11]; 0 day, 300 mg/kg): 92.2 ± 0.374 gm
- change in body weight (Wistar rats [11]; 0 day, 1000 mg/kg): 249 ± 8.124 gm
- food consumed by animals (weight) (Wistar rats [11]; 0 day, 1000 mg/kg): 92.4 ± 1.166 gm
- change in organ weight, Kidney (Wistar rats [11]; 300 mg/kg): 2.058 ± 0.123 gm
- change in organ weight, Liver (Wistar rats [11]; 300 mg/kg): 6.21 ± 0.15 gm
- change in organ weight, Spleen (Wistar rats [11]; 300 mg/kg): 0.83 ± 0.0763 gm
- change in organ weight, Kidney (Wistar rats [11]; 1000 mg/kg): 1.954 ± 0.110 gm
- change in organ weight, Liver (Wistar rats [11]; 1000 mg/kg): 6.74 ± 0.332 gm
- change in organ weight, Spleen (Wistar rats [11]; 1000 mg/kg): 0.747 ± 0.1135 gm
- body weight course (Wistar rats [11]; 7th and 14th day, 1000 mg/kg): gradual decrease in body weight
- food consumption (Wistar rats [11]; 7th day, 300 mg/kg and 1000 mg/kg, compared to control): significant decrease in food consumption
- change in body weight (Wistar rats [11]; 7th day, 300 mg/kg): 254 ± 6.595 gm
- food consumed by animals (weight) (Wistar rats [11]; 7th day, 300 mg/kg): 86.2 ± 0.969 gm
- change in body weight (Wistar rats [11]; 7th day, 1000 mg/kg): 236 ± 8.124 gm
- food consumed by animals (weight) (Wistar rats [11]; 7th day, 1000 mg/kg): 83.2 ± 0.86 gm
- food intake (Wistar rats [11]; 14th day, 300 mg/kg and 1000 mg/kg, compared to 1 % DMSO): significant reduction in food intake
- food intake (Wistar rats [11]; 14th day, 300 mg/kg, compared to control): significant decrease in food intake
- change in body weight (Wistar rats [11]; 14th day, 300 mg/kg): 257 ± 6.04 gm
- food consumed by animals (weight) (Wistar rats [11]; 14th day, 300 mg/kg): 81.2 ± 0.916 gm
- food intake (Wistar rats [11]; 14th day, 1000 mg/kg, compared to control): significant decrease in food intake
- change in body weight (Wistar rats [11]; 14th day, 1000 mg/kg): 225 ± 8.366 gm
- food consumed by animals (weight) (Wistar rats [11]; 14th day, 1000 mg/kg): 76 ± 1.702 gm
- body weight (Wistar rats [11]; day 14th, 1000 mg/kg, compared to control): significantly lowered
- toxicity signs (Wistar rats [11]; oral, 1000 mg/kg): toxicity signs were seen
- tremors, change in eye and skin color (Wistar rats [11]; oral, 1000 mg/kg): tremors, change in eye and skin color was observed
- Mortality (Wistar rats [11]; oral, 2000 mg/kg): Mortality was observed

Source: article PMC11721817 (Toxicology Reports, 2024)
